Measurements reported in patent US11780845B2 (Relay Therapeutics, Inc., priority 2019, dated 2023).

What was measured:
[1] = biological target: T1, FGFR2 (Homo sapiens (Human), UniProt P21802); assay: Biochemical FGFR2 Caliper assay
[2] = biological target: T1, FGFR2; assay: FGFR2 Biochemical Caliper Assay
Description: Compounds of the present invention were also tested in a FGFR2 Biochemical Caliper Assay. Compounds were prepared in 10 mM DMSO solution and serially diluted into 11 concentrations by 3-fold dilution. […] 5 uL of ATP solution (100 uM) was added to start the reaction and the plate was incubated for 90 minutes, then 70 uL of stopping buffer (0.5M EDTA) was added to terminate the reaction. Each well was analyzed using EZ reader.

T1 sequence (P21802 22-821): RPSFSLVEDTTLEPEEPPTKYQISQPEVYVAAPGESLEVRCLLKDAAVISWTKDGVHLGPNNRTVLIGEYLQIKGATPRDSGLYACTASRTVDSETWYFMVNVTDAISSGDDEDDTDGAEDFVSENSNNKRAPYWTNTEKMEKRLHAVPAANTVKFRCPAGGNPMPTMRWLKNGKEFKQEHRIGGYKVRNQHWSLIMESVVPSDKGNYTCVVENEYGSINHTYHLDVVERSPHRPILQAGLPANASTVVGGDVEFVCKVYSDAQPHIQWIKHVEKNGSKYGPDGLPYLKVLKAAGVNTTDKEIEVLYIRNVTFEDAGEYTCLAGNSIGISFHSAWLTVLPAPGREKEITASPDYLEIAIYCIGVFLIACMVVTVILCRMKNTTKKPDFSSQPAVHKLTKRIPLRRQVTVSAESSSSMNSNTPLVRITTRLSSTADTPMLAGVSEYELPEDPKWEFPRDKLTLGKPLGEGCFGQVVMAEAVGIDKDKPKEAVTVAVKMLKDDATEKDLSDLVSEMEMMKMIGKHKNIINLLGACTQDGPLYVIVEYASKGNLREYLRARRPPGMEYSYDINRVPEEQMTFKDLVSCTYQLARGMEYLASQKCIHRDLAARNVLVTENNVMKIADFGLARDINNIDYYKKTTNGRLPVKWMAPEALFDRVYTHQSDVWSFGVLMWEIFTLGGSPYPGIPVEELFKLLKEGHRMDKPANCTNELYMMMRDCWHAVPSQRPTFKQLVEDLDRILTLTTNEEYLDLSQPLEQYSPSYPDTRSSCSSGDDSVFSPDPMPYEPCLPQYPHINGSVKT

Compound	IC50 [1]	IC50 [2]
C/C(=C\CN(C)C)C(=O)Nc1ccc(-c2c(-c3ccc(C(=O)N4CCCC4)cc3)c3c(N)ncnc3n2C)cc1 [Example 553]	–	250 to 1000 nM
C=C(C)C(=O)Nc1ccc(-c2c(-c3ccc(Oc4nccc(C)n4)c(F)c3)c3c(N)ncnc3n2C)c(CN(C)C)c1 [Example 555]	–	< 100 nM
Cn1c(-c2ccc(N3CC=CS3(=O)=O)cc2)c(-c2ccc(C(=O)N3CCCC3)cc2)c2c(N)ncnc21 [Example 556]	–	250 to 1000 nM
Cn1c(-c2ccc(N3CC=CC3=O)cc2)c(-c2ccc(C(=O)N3CCCC3)cc2)c2c(N)ncnc21 [Example 557]	–	1000 to 100000 nM
CC(Cl)C(=O)Nc1ccc(-c2c(-c3ccc(C(=O)N4CCCC4)cc3)c3c(N)ncnc3n2C)cc1 (stereo not drawn) [Example 561]	–	250 to 1000 nM
C=C(C)C(=O)Nc1ccc(-c2c([C@H]3CC[C@@H](C(=O)N4CCCC4)CC3)c3c(N)ncnc3n2C)cc1 [Example 577]	–	1000 to 100000 nM
C=C(C)C(=O)Nc1ccc(-c2c([C@H]3CC[C@H](C(=O)N4CCCC4)CC3)c3c(N)ncnc3n2C)cc1 [Example 578]	–	1000 to 100000 nM
C=C(C)C(=O)Nc1ccc(-c2c(C3=CC[C@H](C(=O)N4CC5CC5C4)CC3)c3c(N)ncnc3n2C)cc1 (stereo partly drawn) [Example 581]	–	1000 to 100000 nM
Cn1c(-c2ccc(NC(=O)C3CO3)cc2)c(-c2ccc(C(=O)N3CCCC3)cc2)c2c(N)ncnc21 (stereo not drawn) [Example 586]	–	100 to 250 nM
C=C(C)C(=O)Nc1ccc(-c2c(-c3ccc(C(=O)N4CCCC4)cc3Cl)c3c(N)ncnc3n2C)cc1 [Example 587]	–	1000 to 100000 nM
C=C(C)C(=O)Nc1ccc(-c2c(-c3ccc(C(=O)N4CCCC4)cc3C(F)F)c3c(N)ncnc3n2C)cc1 [Example 588]	–	1000 to 100000 nM
C=C(C)C(=O)Nc1ccc(-c2c(-c3ccc(C(=O)N4CC5CC4(C(F)F)C5)cc3)c3c(N)ncnc3n2C)cc1 [Example 595]	–	< 100 nM
C=C(C)C(=O)Nc1ccc(-c2c(-c3ccc(C(=O)N4CCCC4)cn3)c3c(N)ncnc3n2C)cc1 [Example 596]	–	< 100 nM
C=C(C)C(=O)Nc1ccc(-c2c(-c3ccc(C(=O)N4CCCC4)cc3C)c3c(N)ncnc3n2C)cc1 [Example 597]	–	1000 to 100000 nM
C=C(C)C(=O)Nc1ccc(-c2c(-c3ccc4c(c3)COC4c3cccc(C)n3)c3c(N)ncnc3n2C)cc1 (stereo not drawn) [Example 599]	–	100 to 250 nM
C=CC(=O)N1CC(c2c(-c3ccc(Oc4ccccc4)cc3)c3c(N)ncnc3n2C)C1 [Example 604]	–	< 100 nM
C=CC(=O)N[C@H]1C[C@H](n2cc(-c3c(-c4ccc(Oc5ccccc5)cc4)c4c(N)ncnc4n3C)cn2)C1 [Example 605]	–	< 100 nM

Compound	IC50 [1]	IC50 [2]
C=CC(=O)N[C@H]1C[C@@H](n2cc(-c3c(-c4ccc(Oc5ccccc5)cc4)c4c(N)ncnc4n3C)cn2)C1 [Example 606]	–	< 100 nM
C=CC(=O)N1CCC(n2cc(-c3c(-c4ccc(Cl)c(OC)c4)c4c(N)ncnc4n3C)cn2)CC1 [Example 609]	–	250 to 1000 nM
C=CC(=O)N1CCC(n2cc(-c3c(-c4ccc(F)c(OC)c4)c4c(N)ncnc4n3C)cn2)CC1 [Example 610]	–	250 to 1000 nM
C=CC(=O)N1CCC(n2cc(-c3c(-c4ccccc4OC)c4c(N)ncnc4n3C)cn2)CC1 [Example 611]	–	1000 to 100000 nM
C=CC(=O)N1CCC(n2cc(-c3c(-c4ccc(Oc5ccccc5)c(OC)c4)c4c(N)ncnc4n3C)cn2)CC1 [Example 612]	–	100 to 250 nM
C=CC(=O)N1CCC(n2cc(-c3c(-c4cc(OC)c(Cl)cc4Cl)c4c(N)ncnc4n3C)cn2)CC1 [Example 613]	–	1000 to 100000 nM
C=CC(=O)N1CCC(n2cc(-c3c(-c4cc(OC)c(Cl)cc4F)c4c(N)ncnc4n3C)cn2)CC1 [Example 614]	–	1000 to 100000 nM
C=CC(=O)N1CCC(n2cc(-c3c(-c4ccc(Oc5ccccc5)cc4Cl)c4c(N)ncnc4n3C)cn2)CC1 [Example 615]	–	< 100 nM
C=CC(=O)N1CCC(n2cc(-c3c(-c4c(Cl)ccc5c4OCO5)c4c(N)ncnc4n3C)cn2)CC1 [Example 616]	–	1000 to 100000 nM
C=CC(=O)N[C@H]1CC[C@@H](c2c(-c3ccc(Oc4cccc(C)n4)c(OC)c3)c3c(N)ncnc3n2C)CC1 [Example 624]	–	1000 to 100000 nM
C=CC(=O)N[C@H]1CC[C@H](c2c(-c3ccc(Oc4cccc(C)n4)c(OC)c3)c3c(N)ncnc3n2C)CC1 [Example 625]	–	250 to 1000 nM
C=CC(=O)N1CCC(N2CC(c3c(-c4ccc(Oc5cccc(C)n5)c(OC)c4)c4c(N)ncnc4n3C)C2)CC1 [Example 658]	–	1000 to 100000 nM
C=CC(=O)N1CCC(N2CC(c3c(-c4ccc(Oc5cccc(C)n5)cc4)c4c(N)ncnc4n3C)C2)CC1 [Example 659]	–	1000 to 100000 nM
C=CC(=O)N1CCC(c2c(-c3ccc(Oc4cccc(C)n4)c(OC)c3)c3c(N)ncnc3n2C)=CC1C (stereo not drawn) [Example 679]	–	< 100 nM
C=CC(=O)Nc1ccc(-c2c(-c3ccc(Oc4nccc(C)n4)c(C)c3)c3c(N)ncnc3n2C)c(F)c1 [Example 1075]	< 100 nM	–
C=C(C)C(=O)Nc1cc(Cl)c(-c2c(-c3ccc(Oc4nccc(C)n4)cc3)c3c(N)ncnc3n2C)cc1F [Example 1076]	< 100 nM	–
CN(C)C/C=C/C(=O)Nc1cccc(-c2c(-c3ccc(C(=O)N4CCCC4)cc3)c3c(N)ncnc3n2C)c1 [Example 1099]	< 100 nM	–

Continued, values first:

IC50 [1]	IC50 [2]	Compound
< 100 nM	–	C=CC(=O)Nc1ccc(-c2c(C3=CC[C@H](C(=O)N4CCCC4)CC3)c3c(N)ncnc3n2C)c(C)c1 (single isomer, unassigned) [Example 1101]
100 to 250 nM	–	C#Cc1ncc(-c2c(-c3ccc(Oc4nccc(C)n4)cc3)c3c(C)ncnc3n2C)c(C)n1 [Example 1100]
< 100 nM	–	C=C(C)C(=O)Nc1ccc(-c2c(-c3ccc4nn(C)cc4c3)c3c(N)ncnc3n2C)cc1 [Example 1122]
< 100 nM	–	C#Cc1cc(C)c(-c2c(-c3ccc(OC(F)(F)F)cc3)c3c(N)ncnc3n2C)cn1 [Example 1129]
< 100 nM	–	C=C(C)C(=O)Nc1cnc(-c2c(-c3ccc(Oc4cccc(C)n4)c(F)c3)c3c(C)ncnc3n2C)c(C)c1 [Example 1139]
250 to 1000 nM	–	C=C(C)C(=O)Nc1ccc(-c2c(-c3ccc(-n4ccc(C)n4)nc3)c3c(N)ncnc3n2C)cc1 [Example 1146]
1000 to 100000 nM	–	C=CC(=O)Nc1ccc(-c2c(-c3ccc4cc[nH]c4c3)c3c(N)ncnc3n2C)cc1 [Example 1147]
< 100 nM	–	C=CC(=O)Nc1ccc(-c2c(-c3cc4ccccc4s3)c3c(N)ncnc3n2C)cc1 [Example 1149]
< 100 nM	–	C=CC(=O)Nc1ccc(-c2c(-c3cnsc3)c3c(N)ncnc3n2C)cc1 [Example 1150]
1000 to 100000 nM	–	C=C(C)C(=O)Nc1ccc(-c2c(C#Cc3cc(OC)cc(OC)c3)c3c(N)ncnc3n2C)cc1 [Example 1152]
1000 to 100000 nM	–	C=C(C)C(=O)Nc1ccc(-c2c(-c3ccc(-c4ccn[nH]4)cc3)c3c(N)ncnc3n2C)cc1 [Example 1156]
250 to 1000 nM	–	C#Cc1ncc(-c2[nH]c3ncnc(N)c3c2-c2ccc(Oc3nccc(C)n3)cc2)c(C)n1 [Example 1159]
1000 to 100000 nM	–	Cn1c(-c2ccc(C#N)cc2)c(-c2ccccc2)c2c(N)ncnc21 [Example 1173]
1000 to 100000 nM	–	C#Cc1ccc(-c2c(-c3ccc(Oc4nccc(C)n4)c(F)c3)c3c(C)ncnc3n2C)c(C)n1 [Example 1174]
1000 to 100000 nM	–	C#Cc1cnc(-c2c(-c3ccc(Oc4nccc(C)n4)cc3)c3c(N)ncnc3n2C)c(C)n1 [Example 1176]
1000 to 100000 nM	–	C#Cc1ncc(-c2c(-c3ccc(Oc4nccc(C)n4)cc3)c3c(N)ncnc3n2C)cc1OC [Example 1178]
1000 to 100000 nM	–	C=C(C)C(=O)Nc1ccc(-c2c(C3=CCN(C(=O)OCc4ccccc4)CC3)c3c(N)ncnc3n2C)cc1 [Example 1190]
